The series can be described thus: in vitro. As to conditions: human, hela cells, % viability.

By viability is commonly meant a read-out of living cells in per cent, often relative to untreated cells. Consider `O=C(CC1(O)C(=O)N(Cc2ccccc2)c2ccccc21)c1cc2ccccc2oc1=O` (stereo not shown) [CBK293963], for which the viability at 28.5 h, 10 µM was determined as 106%.

On to `CC1=CC(C)C(C(=O)O)C(C(=O)NCc2cccnc2)C1` (stereo not shown) [CBK293964], for which the viability at 28.5 h, 10 µM stood at 113%.

Take `COc1ccc(S(=O)(=O)N2Cc3ccccc3CC2C(=O)Nc2ccc(O)cc2)cc1OC` (stereo not shown) [CBK293967]: the viability at 28.5 h, 10 µM was 90.9%.

For the molecule `O=C1CC(C(=O)Nc2cccc(C(=O)O)c2)C(c2ccccc2)O1` (stereo not shown) [CBK293968], the viability at 28.5 h, 10 µM was determined as 87.1%.

As to `CC(C)(C)c1ccc(OCC(O)Cn2c(CO)nc3ccccc32)cc1` (stereo not shown) [CBK293973], the viability at 28.5 h, 10 µM was 81.7%.

Turning to `CC(C)CC(Nc1ncnc2c1oc1ccccc12)C(=O)O` (stereo not shown) [CBK293974], the viability at 28.5 h, 10 µM stood at 100%.

On to `O=C(CC1(O)C(=O)N(CCc2ccccc2)c2ccc(Br)cc21)c1ccncc1` (stereo not shown) [CBK293976], for which the viability at 28.5 h, 10 µM came out at 90.2%.

As for `O=C(CSc1nc2ccccc2nc1N1CCCC1)N1CCN(c2ccccc2)CC1` [CBK293977], the viability at 28.5 h, 10 µM came to 86.5%.

Consider `COc1cc(C2CC(=O)Nc3nc(N)[nH]c(=O)c32)ccc1OCc1ccc(F)cc1` (stereo not shown) [CBK293980], for which the viability at 28.5 h, 10 µM was found to be 84.8%.

In the case of `O=C(Nc1ccc(Oc2ccccc2)cc1)c1cc([N+](=O)[O-])cc2cn[nH]c12` [CBK293985], the viability at 28.5 h, 10 µM is 82.5%.

For the molecule `Cc1nc2ccc(NC(=O)CC(c3ccccc3)c3ccccc3)cc2s1` [CBK293988], the viability at 28.5 h, 10 µM amounted to 90%.

As to `CC(C)Sc1nnc(N2C(N)=C(C#N)C(c3cccs3)C3=C2CCCC3=O)s1` (stereo not shown) [CBK293989], the viability at 28.5 h, 10 µM was found to be 82.8%.

On to `Cc1nc([N+](=O)[O-])c(C(=O)OCc2ccccc2C#N)n1C` [CBK293991], for which the viability at 28.5 h, 10 µM was 82.1%.

As for `COc1ccc(N2C(N)=C(C#N)C(c3cccc(OC(C)C)c3)C3=C2CCS3(=O)=O)cc1` (stereo not shown) [CBK293992], the viability at 28.5 h, 10 µM came to 85.6%.

With `COC(=O)C1=C(C)OC(n2cccc2)=C(C#N)C1c1cc(OC)c(O)c(OC)c1` (stereo not shown) [CBK293994], the viability at 28.5 h, 10 µM is 101%.

On to `CCOC(=O)c1noc2nc(C)n(Cc3nc(-c4ccccc4)oc3C)c(=O)c12` [CBK294400], for which the viability at 28.5 h, 10 µM came out at 89.6%.

Take `CC1CCc2nc3ncn(CC(=O)NC4CC4)c(=O)c3cc2C1` (stereo not shown) [CBK294401]: the viability at 28.5 h, 10 µM is 88.3%.

`CCOC(=O)Cn1cnc2nc3c(cc2c1=O)CC(C)CC3` (stereo not shown) [CBK294402]: the viability at 28.5 h, 10 µM worked out at 90.6%.

Regarding `Cc1ccc(COc2cc(C(=O)NCc3ccccn3)c3ccccc3n2)cc1` [CBK294403], the viability at 28.5 h, 10 µM stood at 112%.

On to `Cc1csc(NC(=O)CSc2nnc3[nH]c(=O)cc(C)n23)n1` [CBK294413], for which the viability at 28.5 h, 10 µM was found to be 81.7%.

Regarding `Cc1csc(NC(=O)c2cccn(Cc3cccc([N+](=O)[O-])c3)c2=O)n1` [CBK294414], the viability at 28.5 h, 10 µM amounted to 87.4%.

For `O=C(C1COc2ccccc2O1)N(Cc1cccnc1)c1nc2c(F)cccc2s1` (stereo not shown) [CBK294421], the viability at 28.5 h, 10 µM amounted to 91%.

For `COc1ccc2sc(N(Cc3cccnc3)C(=O)C3COc4ccccc4O3)nc2c1` (stereo not shown) [CBK294424], the viability at 28.5 h, 10 µM came out at 107%.

For `CC(=O)c1cccc(NC(=O)c2cccn(Cc3ccc(C)cc3)c2=O)c1` [CBK294427], the viability at 28.5 h, 10 µM came out at 114%.

With `COc1ccc(CNC(=O)c2sc3ncnc(N(C)C4CCCCC4)c3c2C)cc1` [CBK294431], the viability at 28.5 h, 10 µM was 78.9%.

Regarding `CSc1ccc(CNC(=O)c2sc3nc(C)nc(N4CCCC4)c3c2C)cc1` [CBK294432], the viability at 28.5 h, 10 µM is 96.8%.

In the case of `CCc1nc(-c2ccc(C)c(S(=O)(=O)N3CCN(c4ccccc4)CC3)c2)no1` [CBK294434], the viability at 28.5 h, 10 µM came to 98.3%.

As to `CCc1cccc(-n2nc(C)c3c2NC(=O)CC3C(=O)c2ccc(CC)s2)c1` (stereo not shown) [CBK294435], the viability at 28.5 h, 10 µM stood at 113%.

As to `Cc1nn(-c2ccccc2)c2c1C(C(=O)c1ccc3c(c1)OCO3)CC(=O)N2` (stereo not shown) [CBK294436], the viability at 28.5 h, 10 µM is 86.1%.

Consider `O=C1CC(C(=O)Nc2ccc(Cl)cc2)c2c(nc(SCc3ccccc3F)[nH]c2=O)N1` (stereo not shown) [CBK294437], for which the viability at 28.5 h, 10 µM was 93.6%.

Regarding `O=C1CC(c2cc(Br)ccc2F)c2scc(-c3ccccc3F)c2N1` (stereo not shown) [CBK294440], the viability at 28.5 h, 10 µM worked out at 86.4%.

On to `NC(=O)COc1ccc(C2CC(=O)Nc3c(-c4cccc(F)c4)csc32)cc1` (stereo not shown) [CBK294441], for which the viability at 28.5 h, 10 µM was 99.6%.

Take `CC(=O)Nc1ccc(N2C(=O)CSC2c2ccccc2[N+](=O)[O-])cc1` (stereo not shown) [CBK294443]: the viability at 28.5 h, 10 µM was 110%.

On to `CCCn1c(=S)[nH]c2cc(C(=O)NCCc3ccc(Cl)cc3)ccc2c1=O` [CBK294445], for which the viability at 28.5 h, 10 µM stood at 88.6%.

Take `CCOC(=O)N1CCC(NC(=O)c2ccc3nc4ccccc4c(=O)n3c2)CC1` [CBK294447]: the viability at 28.5 h, 10 µM worked out at 81.1%.

Turning to `COc1ccc(CCNc2ncnc3c2cnn3-c2ccc(C)cc2C)cc1OC` [CBK294448], the viability at 28.5 h, 10 µM worked out at 88.2%.

With `O=C(NCCN1CCOCC1)c1cc(-c2ccc(F)cc2)nc2ccc(Br)cc12` [CBK294450], the viability at 28.5 h, 10 µM is 89.9%.

For the molecule `O=C(NCc1ccc(Cl)cc1)c1cc(-c2ccc(F)cc2)nc2ccccc12` [CBK294451], the viability at 28.5 h, 10 µM came out at 111%.

On to `O=C(c1ccc(SCc2cccnc2)c([N+](=O)[O-])c1)N1CCCCC1` [CBK294452], for which the viability at 28.5 h, 10 µM was found to be 98.8%.

Take `Cc1cccc(-n2cnc3cc(C(=O)NCc4cccnc4)ccc32)c1` [CBK294455]: the viability at 28.5 h, 10 µM came out at 77.5%.

`CCOc1ccc(NC(=O)Cn2c3c(c(-c4ccccc4)cc2=O)CCCC3)cc1` [CBK294457]: the viability at 28.5 h, 10 µM stood at 85.8%.

Regarding `COc1ccc(-c2cc(C(=O)NC3CCCCC3C)c3ccccc3n2)cc1` (stereo not shown) [CBK294459], the viability at 28.5 h, 10 µM is 107%.

As for `Cc1nc2nc(SCc3cc(=O)n4ccccc4n3)nn2c(C)c1Cc1ccccc1` [CBK294460], the viability at 28.5 h, 10 µM amounted to 89.9%.

For `O=C1N(CN2CCN(c3cccc(C(F)(F)F)c3)CC2)c2ccccc2C12OCCCO2` [CBK294461], the viability at 28.5 h, 10 µM was determined as 99%.

With `CC(C)N(C)C1CCN(S(=O)(=O)c2cccc([N+](=O)[O-])c2)CC1` [CBK294462], the viability at 28.5 h, 10 µM came to 88.7%.

As to `CCN(CCCNC(=O)c1cc(-c2cccnc2)nc2ccccc12)c1cccc(C)c1` [CBK294465], the viability at 28.5 h, 10 µM was found to be 86.7%.

For the molecule `CC(=O)Nc1cc(C(=O)NCc2ccc(F)cc2)ccc1Sc1ccc(Cl)cc1` [CBK294468], the viability at 28.5 h, 10 µM is 96.2%.

In the case of `O=C(CCN1C(=O)COc2ccccc21)NCCCN1CCN(c2ccccc2F)CC1` [CBK294469], the viability at 28.5 h, 10 µM is 102%.

Regarding `CCC(C)NC(=O)C1CCC(=O)N1Cc1ccc(C)cc1` (stereo not shown) [CBK294470], the viability at 28.5 h, 10 µM is 90%.

In the case of `COCCN(C(=S)Nc1ccc(OC)cc1)C(C)c1cccnc1` (stereo not shown) [CBK294471], the viability at 28.5 h, 10 µM was found to be 83.7%.

With `COCCN(C(=S)Nc1ccc(C)cc1Cl)C(C)c1cccnc1` (stereo not shown) [CBK294472], the viability at 28.5 h, 10 µM turned out to be 91.1%.

Turning to `CCOc1ccc(CNc2sc3c(c2C(=O)Nc2ccc(OC)cc2)CCC3)cc1` [CBK294473], the viability at 28.5 h, 10 µM was 80.6%.

Regarding `COc1ccc(C2CC(c3cccc(Br)c3)Nc3ncnn32)cc1OC` (stereo not shown) [CBK294474], the viability at 28.5 h, 10 µM was determined as 82.7%.

Consider `COc1ccc(-c2nnc(SCC(=O)Nc3cc(C(C)(C)C)no3)n2C2CCCCC2)cc1OC` [CBK295131], for which the viability at 28.5 h, 10 µM is 105%.

With `CCCn1c(SCC(=O)N(C)Cc2ccc(OCC)cc2)n[nH]c1=O` [CBK295132], the viability at 28.5 h, 10 µM came out at 90%.

In the case of `CCCCCC(=O)Nc1ccc(C(=O)CSc2nnc(-c3ccco3)o2)cc1` [CBK295134], the viability at 28.5 h, 10 µM amounted to 84%.

For `O=C(CSc1nnc(-c2ccco2)o1)N1CCN(CC(=O)N2CCCC2)CC1` [CBK295136], the viability at 28.5 h, 10 µM turned out to be 111%.

Take `COc1ccc(NC(=O)c2ccc(-c3nnn[nH]3)cc2)cc1OC` [CBK295138]: the viability at 28.5 h, 10 µM was 97.7%.

As to `COc1ccc(NC(=O)c2ccc(-c3nnn[nH]3)cc2)cc1Cl` [CBK295139], the viability at 28.5 h, 10 µM came out at 114%.

Take `CCCn1c(SCc2csc(COc3ccc(Cl)cc3)n2)n[nH]c1=O` [CBK295140]: the viability at 28.5 h, 10 µM stood at 82.3%.

With `O=C(CNC(=O)c1ccco1)Nc1cccc(-c2nc3ccccc3s2)c1` [CBK295142], the viability at 28.5 h, 10 µM turned out to be 85.4%.

`CC(=O)Nc1cc(C(=O)CSc2nnnn2-c2ccc(C)c(C)c2)ccc1O` [CBK295143]: the viability at 28.5 h, 10 µM was determined as 90.9%.

For `CCOc1ccccc1OCCCOc1ccc(C(=O)O)cc1` [CBK295144], the viability at 28.5 h, 10 µM is 110%.

In the case of `O=C(c1cnn(C(=O)c2ccc3c(=O)n4c(nc3c2)CCC4)c1)c1ccccc1O` [CBK295145], the viability at 28.5 h, 10 µM came to 95.7%.

Take `CC(NC(=O)Cc1ccc(-c2ccccc2)cc1)c1cccnc1` (stereo not shown) [CBK295147]: the viability at 28.5 h, 10 µM was 95%.

Turning to `CCOC(=O)c1sc(NC(=O)CCNC(=O)c2ccccc2C(=O)O)c(C#N)c1C` [CBK295152], the viability at 28.5 h, 10 µM worked out at 96.1%.

Regarding `CCc1cccc2c(C=C3C(=O)N(CC(=O)O)C(=O)c4ccccc43)c[nH]c12` [CBK295153], the viability at 28.5 h, 10 µM worked out at 81.5%.

As to `Cc1ccc2[nH]c(-c3ccccc3NC(=O)CCCC(=O)O)nc2c1` [CBK295154], the viability at 28.5 h, 10 µM turned out to be 86%.

Turning to `O=C(O)Cc1csc(SCc2cc(F)cc3c2OC(c2ccccc2)OC3)n1` (stereo not shown) [CBK295158], the viability at 28.5 h, 10 µM was 107%.

Regarding `NC(=O)C1CN(C(=O)CN2CCCc3ccccc32)c2ccccc2O1` (stereo not shown) [CBK295163], the viability at 28.5 h, 10 µM worked out at 93.4%.

As for `O=C(CCc1cccnc1)Nc1ccc(Oc2ccccc2)cc1` [CBK295168], the viability at 28.5 h, 10 µM is 99.8%.

As for `Cc1cc(C(=O)Nc2ccc(S(=O)(=O)N3CC(C)OC(C)C3)cc2)c2ccccc2n1` (stereo not shown) [CBK295170], the viability at 28.5 h, 10 µM came to 87.4%.

With `O=C(O)CCC(NC(=O)c1ccc(-c2ccc(Cl)cc2)s1)C(=O)O` (stereo not shown) [CBK295171], the viability at 28.5 h, 10 µM was determined as 92.9%.

Turning to `O=C(O)CCC(NC(=O)c1ccc(-c2ccc(F)cc2)s1)C(=O)O` (stereo not shown) [CBK295172], the viability at 28.5 h, 10 µM is 102%.

On to `CC(C)Cn1c(SCC(=O)N2CCNC2=O)nnc1-c1ccco1` [CBK295175], for which the viability at 28.5 h, 10 µM was 106%.

For `O=C(Nc1ccc(Cl)c(S(=O)(=O)N2CCCC2)c1)c1cnccn1` [CBK295176], the viability at 28.5 h, 10 µM was 87.9%.

These data come from PMC12040169 (PLOS Biology, 2025).
